Laboratory results from publication PMC5523311, “Synergistic Uric Acid-Lowering Effects of the Combination of Chrysanthemum indicum Linne Flower and Cinnamomum cassia (L.) J. Persl Bark Extracts” (Evidence-based Complementary and Alternative Medicine : eCAM, 2017).
≈ marks a conversion by molar mass, not a printed value.

Tests used:
[1] = molecular target: T1, xanthine oxidase from bovine milk (Bos taurus, UniProt P80457); test: In vitro XOD inhibition assay (uric acid formation at 295 nm); type: biochemical; conditions: for IC50 / IC50 XOD activity: mean of three experiments
T1 construct: xanthine oxidase from bovine milk (0.09 units/mg solid); purchased Sigma-Aldrich (St. Louis, MO, USA); host or cells: bovine milk
T1 sequence (P80457 whole entry): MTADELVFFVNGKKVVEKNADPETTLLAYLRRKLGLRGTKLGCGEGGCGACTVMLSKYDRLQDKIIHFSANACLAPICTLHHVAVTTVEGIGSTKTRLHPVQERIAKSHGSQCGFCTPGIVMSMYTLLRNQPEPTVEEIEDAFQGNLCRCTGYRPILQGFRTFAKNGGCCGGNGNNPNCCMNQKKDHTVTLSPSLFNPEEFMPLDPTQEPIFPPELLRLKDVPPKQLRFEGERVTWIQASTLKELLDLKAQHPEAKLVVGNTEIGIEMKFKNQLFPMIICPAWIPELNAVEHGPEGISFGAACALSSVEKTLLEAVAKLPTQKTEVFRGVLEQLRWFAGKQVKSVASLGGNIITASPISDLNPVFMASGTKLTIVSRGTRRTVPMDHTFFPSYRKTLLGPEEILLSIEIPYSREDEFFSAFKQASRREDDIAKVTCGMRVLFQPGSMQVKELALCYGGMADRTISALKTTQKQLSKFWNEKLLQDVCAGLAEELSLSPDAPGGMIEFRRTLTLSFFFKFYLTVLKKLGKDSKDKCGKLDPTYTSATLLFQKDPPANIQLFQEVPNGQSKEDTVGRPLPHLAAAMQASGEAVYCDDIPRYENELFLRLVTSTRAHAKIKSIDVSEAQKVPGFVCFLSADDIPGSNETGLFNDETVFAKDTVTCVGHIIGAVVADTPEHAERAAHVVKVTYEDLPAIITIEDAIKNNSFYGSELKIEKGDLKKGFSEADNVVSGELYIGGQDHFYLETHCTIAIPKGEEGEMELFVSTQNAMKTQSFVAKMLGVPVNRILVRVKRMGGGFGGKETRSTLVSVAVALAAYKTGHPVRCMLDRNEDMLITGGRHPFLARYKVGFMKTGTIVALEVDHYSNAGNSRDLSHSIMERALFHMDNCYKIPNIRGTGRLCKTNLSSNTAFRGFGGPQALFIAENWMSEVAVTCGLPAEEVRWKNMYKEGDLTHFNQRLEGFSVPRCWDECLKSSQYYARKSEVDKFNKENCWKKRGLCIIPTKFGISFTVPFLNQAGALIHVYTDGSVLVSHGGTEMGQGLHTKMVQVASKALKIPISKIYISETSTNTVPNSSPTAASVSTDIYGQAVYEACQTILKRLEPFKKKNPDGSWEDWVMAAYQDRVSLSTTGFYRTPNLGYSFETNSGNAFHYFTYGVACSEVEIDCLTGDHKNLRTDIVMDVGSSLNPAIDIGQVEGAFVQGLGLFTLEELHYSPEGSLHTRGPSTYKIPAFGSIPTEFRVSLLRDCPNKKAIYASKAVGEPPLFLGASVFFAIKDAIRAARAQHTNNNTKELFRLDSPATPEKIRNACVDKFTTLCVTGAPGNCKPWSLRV
Experimental: Inhibition of XOD activity was analyzed based on decreases in uric acid formation at 295 nm at 37°C using a spectrophotometer. […] Test samples were dissolved in DMSO (final concentration 0.1%, v/v) to final concentrations appropriate for the tested dose. […] All the experiments were performed in triplicate, and IC50 values are expressed as the means of three experiments [26].

[2] = test system: PO-induced hyperuricemic mice; set-up: method as in Wang et al. [23] and Meng et al. [32]; conditions: ref Wang et al. [23] and Meng et al. [32]; cited from earlier work
[3] = test system: PO-induced hyperuricemic rats; test: Urine uric acid, FEUA and creatinine in PO-induced hyperuricemic rats; type: in vivo, rat; conditions: 10 mg/kg oral
Experimental: (§1) For hyperuricemia induction, the uricase inhibitor potassium oxonate (PO) was administered as previously described, with slight modifications. For the experiment regarding the effects of CF, CB, and various CC mixtures, the rats were divided into the following 10 groups (n = 8/group) based on body weight: (1) a normal control group (NC), (2) a hyperuricemia control group (PO), (3) a PO + CF group, (4) a PO + CB group, (5) a PO + CC11 group, (6) a PO + CC12 group, (7) a PO + CC14 group, (8) a PO + CC21 group, (9) a PO + CC41 group, and (10) a PO + AP group. […]
(§2) Urine samples were collected during 2 h after the final administration experiment and centrifuged (3000g, 10 min, 4°C) to remove particulate contaminants, and the supernatants were stored at −80°C until analysis. […] Serum and urine uric acid (SUA and UUA, resp.) levels were determined by an enzymatic-colorimetric method using commercial assay kits (Biovision, USA) according to manufacturer's protocols. Serum and urine creatinine levels were analyzed by an autoanalyzer (Hitachi-7020, Hitachi Medical, Japan). Fractional excretion of uric acid (FEUA) was calculated by the formula FEUA (%) = (urine uric acid levels [mg/dl] × Serum Creatinine levels [mg/dl])/(serum uric acid levels [mg/dl] × urine creatinine levels [mg/dl]) × 100.

[4] = test system: PO-induced hyperuricemic rats; test: Serum uric acid levels in PO-induced hyperuricemic rats; type: in vivo, rat; conditions: 10 mg/kg oral
Experimental: as §1, §2

normal rats = test: Serum uric acid levels in normal rats; type: in vivo, rat; conditions: 10 mg/kg oral, Figure 1(b)
Experimental: The rats were randomized into the following 9 groups (n = 8/group) based on body weight: (1) a normal control group (NC), (2) a CF group, (3) a CB group, (4) a CC11 group, (5) a CC12 group, (6) a CC14 group, (7) a CC21 group, (8) a CC41 group, and (9) an AP group. The rats of NC group were treated with vehicle (0.5% CMC solution). CF, CB, and various CC mixtures in 0.5% CMC solution were given to the rats via oral gavage at a dose of 200 mg/kg. Allopurinol in 0.5% CMC solution was administered at a dose of 10 mg/kg.
as §2, with “analysis. Blood samples were collected via cardiac puncture under anesthesia 2 h after urine collection following PO injection.” for “analysis.”

[5] = read-out: % inhibition of XOD activity

| SMILES | inhibition at 62.5 µg/mL ([1]; 62.5 μg/ml) [%] | inhibition at 125 µg/mL ([1]; 125 μg/ml) [%] | inhibition at 250 µg/mL ([1]; 250 μg/ml) [%] | IC50 [1] [µM] | % inhibition of XOD activity ([1]; 62.5 μg/ml) [%] | % inhibition of XOD activity ([1]; 125 μg/ml) [%] | % inhibition of XOD activity ([1]; 250 μg/ml) [%] | IC50 XOD activity [1] [µg/mL] | further results |
| --- | --- | --- | --- | --- | --- | --- | --- | --- | --- |
| O=C(/C=C/c1ccc(O)c(O)c1)O[C@@H]1C[C@](O)(C(=O)O)C[C@@H](O)[C@H]1O [Chlorogenic acid] | 24 ± 1.7 | 63.6 ± 1.5 | 107.3 ± 0.6 | 293 | – | – | – | – | Effect on serum uric acid levels by inhibiting XOD activity [2]: significantly decreased |
| COc1ccccc1C=CC=O [o-Methoxycinnamaldehyde, o-methoxycinnamaldehyde] | – | – | – | – | 104.7 ± 0.2 | 101.2 ± 0.2 | 100.0 ± 0.4 | 25.7 (≈ 158 µM) | – |
| O=C(/C=C/c1ccc(O)c(O)c1)O[C@@H]1[C@H](O)C[C@@](O)(C(=O)O)C[C@H]1OC(=O)/C=C/c1ccc(O)c(O)c1 (stereo in doubt) [3,4-Dicaffeoylquinic acid, 3,4-dicaffeoylquinic acid] | – | – | – | – | 21.0 ± 1.5 | 104.6 ± 2.6 | 85.0 ± 1.2 | 79.7 (≈ 154 µM) | – |
| O=c1ccc2ccccc2o1 [Coumarin, coumarin] | 22.8 ± 0.1 | 75.1 ± 1 | 103.9 ± 0.7 | 651 | – | – | – | – | – |
| O=C/C=C/c1ccccc1 [Cinnamaldehyde, cinnamaldehyde] | 101 ± 3.2 | 126 ± 5.6 | 119 ± 35.1 | 331 | – | – | – | – | Effect on serum uric acid levels by inhibiting XOD activity [2]: significantly decreased |
| O=C(O)/C=C/c1ccccc1 [trans-Cinnamic acid, trans-cinnamic acid] | – | – | – | – | 54.3 ± 0.7 | 96.7 ± 1.9 | 114.9 ± 0.4 | 58.8 (≈ 397 µM) | – |
| Oc1ncnc2[nH]ncc12 [Allopurinol, allopurinol] | – | – | – | – | – | – | – | – | Effect on urine uric acid levels ([3]; Figure 2(b)): did not affect; Effect on FEUA ([3]; Figure 2(c), p < 0.05): increased the FEUA; Reduction of serum uric acid levels compared with the PO group ([4]; PO-induced hyperuricemic rats, Figure 1(a)): 75%; Reduction of serum uric acid levels ([4]; dose-dependence experiment, Figure 2(a)): 66%; inhibition at 6.25 µg/mL [1, 5]: 51.7 ± 0.7%; inhibition at 12.5 µg/mL [1, 5]: 71.7 ± 0.1%; inhibition at 25 µg/mL [1, 5]: 80.3 ± 0.3%; Decrease of serum uric acid levels compared with the NC group (normal rats): 70% |
